Assay results: paper doi:10.1101/2025.08.21.671483v1, “In vitro and in vivo activity profiles of broad-spectrum bacterial ATP synthase inhibitors” (biorxiv, 2025)
Values after ≈ are worked out from the molar mass of the structure shown. Like-named read-outs stand apart in the source and are kept apart here.

How the values were obtained:
S. aureus ATP synthase = target: T1, S. aureus ATP synthase (Staphylococcus aureus, UniProt Q99SF0); assay: ATP production by membrane vesicles, luciferase luminescence; format: biochemical; settings: […] NADH, 1 mM ADP, 10 mM potassium phosphate; 30 min preincubation, 60 min reaction
T1 construct: gene atpE
Text: ATP production by membrane vesicles, luciferase luminescence on S. aureus ATP synthase

[1] = system: T2, S. aureus ATCC 29740 (Newbould); assay: microbe, parasite or virus in culture; set-up: species or system bacteria; CLSI broth microdilution MIC, no visible growth; settings: Staphylococcus aureus
T2 construct: ATCC 29740 (Newbould)

E. coli ATCC 25922 [2] = system: T3, E. coli ATCC 25922; assay: microbe, parasite or virus in culture; set-up: species or system bacteria; CLSI broth microdilution MIC, no visible growth; settings: Escherichia coli
T3 construct: ATCC 25922

S. aureus ATCC 29740hemB = assay: microbe, parasite or virus in culture; settings: Staphylococcus aureus, ATCC29740HEMB, read-out: MIC
E. coli MC4100 acrAB = system: T4, E. coli MC4100 acrAB; assay: microbe, parasite or virus in culture; settings: Escherichia coli, MC4100ACRAB, read-out: MIC
T4 construct: MC4100 acrAB efflux-deficient

E. coli ATP synthase = target: T5, E. coli ATP synthase (Escherichia coli, UniProt P68699); assay: ATP production by membrane vesicles, luciferase luminescence; format: biochemical; settings: […] NADH, 1 mM ADP, 10 mM potassium phosphate; 30 min preincubation, 60 min reaction
T5 construct: gene atpE
Text: ATP production by membrane vesicles, luciferase luminescence on E. coli ATP synthase

E. coli MC4100 WT = system: T6, E. coli MC4100 WT; assay: microbe, parasite or virus in culture; set-up: species or system bacteria; CLSI broth microdilution MIC, no visible growth; settings: Escherichia coli, MC4100WT
T6 construct: MC4100 (ATCC 35695)

E. coli MC4100 lptD4213 = system: T7, E. coli MC4100 lptD4213; assay: microbe, parasite or virus in culture; settings: Escherichia coli, MC4100LPTD4213, read-out: MIC
T7 construct: MC4100 lptD4213 membrane-compromised

[3] = system: T8, Citrobacterfreundii ATCC 8090; assay: organism not typed; set-up: species or system bacteria; CLSI broth microdilution MIC, no visible growth; settings: read-out: Table 5 IMI MIC
T8 construct: ATCC 8090

[4] = system: T9, Escherichia coli ATCC BAA2471; assay: microbe, parasite or virus in culture; set-up: species or system bacteria; CLSI broth microdilution MIC, no visible growth
T9 construct: ATCC BAA-2471

Escherichia coli ec310 = system: T10, Escherichia coli ec310; assay: microbe, parasite or virus in culture; set-up: species or system bacteria; CLSI broth microdilution MIC, no visible growth
T10 construct: ec310

[5] = system: T11, Escherichia coli 70122 CW-2007; assay: microbe, parasite or virus in culture; set-up: species or system bacteria; CLSI broth microdilution MIC, no visible growth
T11 construct: 70122 CW-2007

[6] = system: T12, Escherichia coli 95882 CW-2011; assay: microbe, parasite or virus in culture; set-up: species or system bacteria; CLSI broth microdilution MIC, no visible growth
T12 construct: 95882 CW-2011

Escherichia coli ec305 = system: T13, Escherichia coli ec305; assay: microbe, parasite or virus in culture; set-up: species or system bacteria; CLSI broth microdilution MIC, no visible growth
T13 construct: ec305

Escherichia coli ec309 = system: T14, Escherichia coli ec309; assay: microbe, parasite or virus in culture; set-up: species or system bacteria; CLSI broth microdilution MIC, no visible growth
T14 construct: ec309

Escherichia coli ec302 = system: T15, Escherichia coli ec302; assay: microbe, parasite or virus in culture; set-up: species or system bacteria; CLSI broth microdilution MIC, no visible growth
T15 construct: ec302

[7] = system: T16, Escherichia coli ATCC 35218; assay: microbe, parasite or virus in culture; set-up: species or system bacteria; CLSI broth microdilution MIC, no visible growth
T16 construct: ATCC 35218

Escherichia coli ec308 = system: T17, Escherichia coli ec308; assay: microbe, parasite or virus in culture; set-up: species or system bacteria; CLSI broth microdilution MIC, no visible growth
T17 construct: ec308

E. coli ATCC 25922 [8] = system: T3, E. coli ATCC 25922; assay: microbe, parasite or virus in culture; set-up: species or system bacteria; CLSI broth microdilution MIC, no visible growth; settings: Escherichia coli, ATCC25922, read-out: CAZ MIC
[9] = system: T18, Escherichia coli ATCC 25922; assay: microbe, parasite or virus in culture; settings: ATCC25922, read-out: MIC (ug/ml) first column
T18 construct: ATCC 25922

## C[C@H]1CC[C@]2(NC1)O[C@H]1C[C@H]3[C@@H]4CC[C@H]5CC(NC[C@H](N)Cc6c[nH]c7ccccc67)CC[C@]5(C)[C@H]4CC[C@]3(C)[C@H]1[C@@H]2C (stereo partly drawn) [TM-247]
S. aureus ATP synthase
  IC50: 1060 ± 240 nM
[1]; ATCC29740, read-out: TM-247 MIC
  MIC: 2 µg/mL (≈ 3.41 µM)
E. coli ATCC 25922 [2]; ATCC25922, read-out: TM-247 MIC
  MIC: 8 µg/mL (≈ 13.6 µM)
S. aureus ATCC 29740hemB
  MIC: ≤ 0.25 µg/mL
E. coli MC4100 acrAB
  MIC: 4 µg/mL (≈ 6.82 µM)
E. coli ATP synthase
  IC50: 2120 ± 320 nM
E. coli MC4100 WT; read-out: TM-247 MIC
  MIC: 16 µg/mL (≈ 27.3 µM)
E. coli MC4100 lptD4213
  MIC: 2 µg/mL (≈ 3.41 µM)

## C[C@@H](O)[C@H]1C(=O)N2C(C(=O)O)=C(SCCNC=N)C[C@H]12 [IMI, imipenem]
[3]
  MIC: 1 µg/mL (≈ 3.34 µM)

## CC(C)(O/N=C(\C(=O)N[C@@H]1C(=O)N2C(C(=O)[O-])=C(C[n+]3ccccc3)CS[C@H]12)c1csc(N)n1)C(=O)O [CAZ, ceftazidime]
[4]; ATCCBAA2471, read-out: CAZ MIC
  MIC: > 128 µg/mL
Escherichia coli ec310; EC310, read-out: CAZ MIC
  MIC: 64 µg/mL (≈ 117 µM)
[5]; 70122CW2007, read-out: CAZ MIC
  MIC: 64 µg/mL (≈ 117 µM)
[6]; 95882CW2011, read-out: CAZ MIC
  MIC: 128 µg/mL (≈ 234 µM)
Escherichia coli ec305; EC305, read-out: CAZ MIC
  MIC: 1 µg/mL (≈ 1.83 µM)
Escherichia coli ec309; EC309, read-out: CAZ MIC
  MIC: 64 µg/mL (≈ 117 µM)
Escherichia coli ec302; EC302, read-out: CAZ MIC
  MIC: > 128 µg/mL
[7]; ATCC35218, read-out: CAZ MIC
  MIC: 0.25 µg/mL (≈ 0.457 µM)
Escherichia coli ec308; EC308, read-out: CAZ MIC
  MIC: 128 µg/mL (≈ 234 µM)
E. coli ATCC 25922 [8]
  MIC: 0.12 µg/mL (≈ 0.22 µM)

## C[C@H]1CC[C@]2(NC1)O[C@H]1C[C@H]3[C@@H]4CC[C@H]5CC(NC[C@H](N)Cc6ccc(C(F)(F)F)cc6)CC[C@]5(C)[C@H]4CC[C@]3(C)[C@H]1[C@@H]2C (stereo partly drawn) [TM-303]
S. aureus ATP synthase
  IC50: 1320 ± 220 nM
[1]; ATCC29740, read-out: TM-303 MIC
  MIC: 4 µg/mL (≈ 6.49 µM)
E. coli ATCC 25922 [2]; ATCC25922, read-out: TM-303 MIC
  MIC: 8 µg/mL (≈ 13 µM)
S. aureus ATCC 29740hemB
  MIC: ≤ 0.25 µg/mL
E. coli MC4100 acrAB
  MIC: 4 µg/mL (≈ 6.49 µM)
E. coli ATP synthase
  IC50: 3150 ± 730 nM
E. coli MC4100 WT; read-out: TM-303 MIC
  MIC: 16 µg/mL (≈ 26 µM)
E. coli MC4100 lptD4213
  MIC: 2 µg/mL (≈ 3.25 µM)

## C[C@H]1CC[C@]2(NC1)O[C@H]1C[C@H]3[C@@H]4CC[C@H]5CC(NCCN)CC[C@]5(C)[C@H]4CC[C@]3(C)[C@H]1[C@@H]2C (mixture of isomers) [TM-02]
S. aureus ATP synthase
  IC50: 510 ± 170 nM
[1]; ATCC29740, read-out: TM-02 MIC
  MIC: 4 µg/mL
[4]; ATCCBAA2471, read-out: Table 3 TM-02 MIC
  MIC: 32 µg/mL
Escherichia coli ec310; EC310, read-out: Table 3 TM-02 MIC
  MIC: 32 µg/mL
[5]; 70122CW2007, read-out: Table 3 TM-02 MIC
  MIC: 16 µg/mL
[6]; 95882CW2011, read-out: Table 3 TM-02 MIC
  MIC: 32 µg/mL
Escherichia coli ec305; EC305, read-out: Table 3 TM-02 MIC
  MIC: 4 µg/mL
Escherichia coli ec309; EC309, read-out: Table 3 TM-02 MIC
  MIC: 32 µg/mL
Escherichia coli ec302; EC302, read-out: Table 3 TM-02 MIC
  MIC: 32 µg/mL
[7]; ATCC35218, read-out: Table 3 TM-02 MIC
  MIC: 32 µg/mL
Escherichia coli ec308; EC308, read-out: Table 3 TM-02 MIC
  MIC: 8 µg/mL
E. coli ATCC 25922 [2]; ATCC25922, read-out: TM-02 MIC
  MIC: 32 µg/mL
S. aureus ATCC 29740hemB
  MIC: ≤ 0.25 µg/mL
[9]
  MIC: 32 µg/mL
E. coli MC4100 acrAB
  MIC: 8 µg/mL
E. coli ATP synthase
  IC50: 1490 ± 280 nM
E. coli MC4100 WT; read-out: TM-02 MIC
  MIC: 16 µg/mL
E. coli MC4100 lptD4213
  MIC: 0.5 µg/mL
